The record followed here is PubChem BioAssay AID179 (DTP/NCI, 2004).

The assay concerns CEM cells HIV-1 protection, formazan growth assay. The assay can be described thus: NCI AIDS Antiviral Assay. Conditions: for IC50: measured here: growth of uninfected CEM cells. In outline: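 Human CEM cells, uninfected and HIV-1-infected, received five drug concentrations, and growth was read by soluble formazan assay. Compounds giving at least 50% protection were retested; reproducible 100% protection defined confirmed active.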

The source made the active and inactive calls.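 Rule for the calls: active = compounds giving half or more protection of infected cells from virus-caused growth loss, again on retest; inactive = the rest.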 Where a SMILES comes first, the peptide text is derived from it. The star is where a group is joined. Boc = CC(C)(C)OC(=O)*

By EC50 is commonly meant the concentration needed to bring the measured effect to its halfway point. By IC50 is commonly meant the concentration that inhibits the measured activity by half. A higher IC50 goes with lower potency. As for `c1ccc(Cc2cccc3cc(-c4ccc(-c5ccccc5)cc4)[nH]c23)cc1`, the EC50 is over 200 µM and the IC50 came out at 166 µM. The corresponding values for `N#Cc1nc(/C=C/c2cccs2)oc1N` are over 200 µM and 107 µM.

In the case of `Cc1ccc2[nH]c3c(c2c1)CCC/C3=N/N=C(N)N`, the EC50 was over 20 µM and the IC50 is 3.02 µM. For the compound `COC(=O)C1=CO[C@@H](C)[C@H]2CN3CC[C@]4(C(=O)Nc5ccccc54)[C@@H]3C[C@H]12`, the EC50 was over 200 µM and the IC50 was over 200 µM. Regarding `CC1(CC2=C(C(=O)NCCO[Si](C)(C)C(C)(C)C)C3(OCCO3)C2=O)OCCO1`, the EC50 was over 200 µM and the IC50 was over 200 µM. Regarding `CC1=C(Br)CC23C(C1)OC(Br)(C=CC2(C)O)C3(C)C` (stereo not given) (tested in a mixture with another compound), the outcome was inactive. As for `Cc1c(-c2nc(N)c(C#N)c(N)c2C#N)c(=O)oc2ccccc12`, the EC50 is over 200 µM and the IC50 is 115 µM. On to `N#CC1(OC2CCCCO2)Cc2ccccc2C1` (stereo not given), for which the EC50 was over 200 µM and the IC50 is over 200 µM. As for `N#Cc1c2c(c(Nc3ccc(Cl)cc3)n3c1nc1ccccc13)CCCC2`, the EC50 was over 200 µM and the IC50 turned out to be 11.5 µM.

Consider `CCOC(=O)C1Sc2ccccc2N=C1C` (stereo not given), for which the EC50 was over 30.9 µM and the IC50 was over 30.9 µM.

Regarding `CN(C)c1cc(CNCCc2cnc[nH]2)nc(CNCCc2cnc[nH]2)c1`, the EC50 is over 200 µM and the IC50 turned out to be 12.3 µM. The corresponding values for `Oc1cc2cccc[n+]2c2cccc(Cl)c12` are over 200 µM and 34.7 µM.

Regarding `CC(=O)Nc1ccc(/C=C2\SC(=S)N(/C=C(\C(C)=O)C(N)=O)C2=O)cc1`, the EC50 is over 200 µM and the IC50 was 72.4 µM. Take `O/N=C(\C(=N/O)Nc1ccc(-c2ccc(NC(=N/O)/C(=N\O)c3ccccc3)cc2)cc1)c1ccccc1`: the EC50 is over 37.2 µM and the IC50 amounted to 30.9 µM. In the case of `COC(=O)C(Cc1c[nH]c2ccccc12)NC(=O)C(Cc1c[nH]c2ccccc12)NC(=O)C(Cc1c[nH]c2ccccc12)NC(=O)C(Cc1c[nH]c2ccccc12)NC(=O)C(Cc1c[nH]c2ccccc12)NC(=O)OC(C)(C)C` (stereo not given) (Boc-WWWWW-OMe; configuration not given here), the EC50 was over 200 µM and the IC50 stood at 27.5 µM. As for `O=C(c1ccc(Cl)cc1)C1N=NCC1c1ccccc1` (stereo not given), the EC50 was over 200 µM and the IC50 is 75.9 µM.

As to `CC(N)CNCCCNCCNCCCNCO` (stereo not given), the EC50 is over 100 µM and the concentration for half-maximal inhibition (IC50) is over 100 µM. As for `CCCCCCCCS(=O)(=O)O`, the EC50 is over 200 µM and the IC50 is over 200 µM. In the case of `CCOC(=O)C1(c2ccccc2)C(=O)Oc2ccccc21` (stereo not given), the EC50 was 13.2 µM and the IC50 was determined as 64.6 µM. For the compound `CC(=O)OC1CC2(C)OC(Cc3ccccc32)O1` (stereo not given), the EC50 is over 200 µM and the IC50 was over 200 µM. With `COc1cc(C(=O)O)c(C(=O)c2ccc(C#N)cc2)cc1OC`, the EC50 is over 200 µM and the IC50 was over 200 µM.

As to `COc1ccccc1OCC(COC(=O)Nc1ccc(C)cc1)OC(=O)Nc1ccc(C)cc1` (stereo not given), the EC50 is over 77.6 µM and the IC50 worked out at 72.4 µM.

With `COC(=O)C1C2COc3ccccc3C2=NC1c1ccc([N+](=O)[O-])cc1` (stereo not given), the EC50 is over 100 µM and the IC50 was 13.8 µM. In the case of `O=S1(=O)c2ccccc2C(O)(c2ccccc2)c2ccccc21`, the EC50 is over 200 µM and the IC50 turned out to be 123 µM. With `Cc1ccc2[nH]c3c(c2c1)C1CCC(C(C)(C)C)CC1C1C(=O)N(c2ccc4c(c2)OCO4)C(=O)C31` (stereo not given), the EC50 was over 200 µM and the IC50 came out at 11.5 µM. The corresponding values for `NC(=O)CNC(=O)c1ccccc1SC(=O)OCCBr` are 7.08 µM and over 200 µM. Consider `CC1(C)OC2C3CC(C2O1)C1C3C2(Cl)CC1(Cl)C(Cl)=C2Cl` (stereo not given), for which the outcome was inactive.

For the compound `CCC1=CCN(c2ccc(C)cc2)OC1c1ccc(OC)cc1` (stereo not given), the EC50 was over 32.4 µM and the IC50 was over 32.4 µM. Turning to `O=S(Cc1ccccc1)/C(=C/n1c(=S)[nH]c2ccccc21)c1ccccc1` (stereo not given), the EC50 was over 200 µM and the IC50 was over 200 µM.

`O=NN(O)c1ccccc1.O=NN(O)c1ccccc1.[Cu]`: the result was inactive. Take `O=C(O)CCC1CCc2cccc3occ1c23` (stereo not given): the result was inactive. In the case of `CC12CCC(C/C1=N\NC(N)=O)C2(C)C` (stereo not given), the EC50 is over 200 µM and the IC50 is over 200 µM. With `CC(=O)NC(CCCCNC(=O)N(CCCl)N=O)C(=O)NCc1ccccc1` (stereo not given), the EC50 is over 603 µM and the IC50 came out at 132 µM.

Take `O=C(Nc1ccc(S(=O)(=O)Nc2nccs2)cc1)c1cccnc1Nc1cccc(Cl)c1`: the result was inactive. On to `Cc1c(OCc2cccc3ccccc23)ccc2c(=O)cc(SCCN3CCOCC3)oc12`, for which the result was inactive.

`O=C1CCCCCCCCCCC1CCCCCBr` (stereo not given): the EC50 is over 200 µM and the IC50 came to 57.5 µM. With `c1cc2n[se]nc2cc1-c1ccc2n[se]nc2c1`, the EC50 is 155 µM and the IC50 was over 200 µM.

Take `O=C(Cc1nc2ccccc2s1)C(=O)Nc1cccc(Cl)c1`: the outcome was inactive. On to `CCOC(=N)CC(=O)Nc1ccccc1`, for which the EC50 is over 40.7 µM and the IC50 was over 40.7 µM.

For `OC12CC/C(=N/OCc3ccccc3)CC1c1ccccc12` (stereo not given), the EC50 was over 162 µM and the IC50 came to 148 µM.

In the case of `O=C1C=C/C(=N\N=C(c2ccccc2)c2ccccc2)O1`, the EC50 is over 200 µM and the IC50 came out at 145 µM. Turning to `COc1cc(C(=O)N(C)N(C)C)cc(OC)c1OC`, the EC50 is over 200 µM and the IC50 is over 200 µM. For `CCOC(=O)CC(N1CC1)N1CC1`, the EC50 was over 200 µM and the IC50 was over 200 µM. Turning to `O=C(c1ccccc1)[C@H]1Nc2ccc(Cl)cc2[C@H]2CCC[C@@H]12`, the EC50 is over 4.68 µM and the IC50 was over 4.68 µM. For the compound `CC1CCC2(CCN(CCCN(C)C)CC2)C1` (stereo not given), the outcome was inactive. As for `O=C1CCCCC/C1=C\c1cccc([N+](=O)[O-])c1`, the EC50 is over 200 µM and the IC50 is 23.4 µM.

For `O=c1[nH]c2ncccc2c(=O)n1O`, the EC50 is over 200 µM and the IC50 was 34.7 µM. In the case of `CC(C)n1c(=O)[nH]n(-c2ccccc2)c1=O`, the EC50 was over 200 µM and the IC50 was over 200 µM. Take `Brc1cc(C2OCCCO2)ccc1OCc1ccccc1`: the EC50 is over 53.7 µM and the IC50 was over 53.7 µM. With `O=C(NCCc1c(-c2ccccc2)[nH]c2ccccc12)C1CCCCC1`, the EC50 is over 200 µM and the IC50 is 15.8 µM. With `O=P(O)(O)CC1OC(CO)C(O)C1O` (stereo not given), the EC50 was over 200 µM and the half-inhibitory concentration (IC50) is over 200 µM. As for `Nc1ncnc2c1ncn2CC1OC(CO)C(CO)O1` (stereo not given), the EC50 is over 891 µM and the IC50 was over 891 µM. For `COc1cc(C(c2ccc(N(Cc3ccccc3)Cc3ccccc3)cc2NC(C)=O)c2ccc(N(Cc3ccccc3)Cc3ccccc3)cc2NC(C)=O)ccc1O`, the EC50 was over 200 µM and the IC50 was over 200 µM. With `COc1cccc(C=NC23CC4CC(CC(C4)C2)C3)c1`, the EC50 was over 69.2 µM and the IC50 was over 69.2 µM.
